Assay results from patent publication EP3623369A1, “NOVEL MORPHOLINYL AMINE COMPOUNDS FOR THE TREATMENT OF AUTOIMMUNE DISEASE” (F. Hoffmann-La Roche AG, priority 2018, dated 2020).

Biological target: T1, human TLR8 (Homo sapiens, UniProt Q9NR97)
T1 sequence (Q9NR97 27-1041): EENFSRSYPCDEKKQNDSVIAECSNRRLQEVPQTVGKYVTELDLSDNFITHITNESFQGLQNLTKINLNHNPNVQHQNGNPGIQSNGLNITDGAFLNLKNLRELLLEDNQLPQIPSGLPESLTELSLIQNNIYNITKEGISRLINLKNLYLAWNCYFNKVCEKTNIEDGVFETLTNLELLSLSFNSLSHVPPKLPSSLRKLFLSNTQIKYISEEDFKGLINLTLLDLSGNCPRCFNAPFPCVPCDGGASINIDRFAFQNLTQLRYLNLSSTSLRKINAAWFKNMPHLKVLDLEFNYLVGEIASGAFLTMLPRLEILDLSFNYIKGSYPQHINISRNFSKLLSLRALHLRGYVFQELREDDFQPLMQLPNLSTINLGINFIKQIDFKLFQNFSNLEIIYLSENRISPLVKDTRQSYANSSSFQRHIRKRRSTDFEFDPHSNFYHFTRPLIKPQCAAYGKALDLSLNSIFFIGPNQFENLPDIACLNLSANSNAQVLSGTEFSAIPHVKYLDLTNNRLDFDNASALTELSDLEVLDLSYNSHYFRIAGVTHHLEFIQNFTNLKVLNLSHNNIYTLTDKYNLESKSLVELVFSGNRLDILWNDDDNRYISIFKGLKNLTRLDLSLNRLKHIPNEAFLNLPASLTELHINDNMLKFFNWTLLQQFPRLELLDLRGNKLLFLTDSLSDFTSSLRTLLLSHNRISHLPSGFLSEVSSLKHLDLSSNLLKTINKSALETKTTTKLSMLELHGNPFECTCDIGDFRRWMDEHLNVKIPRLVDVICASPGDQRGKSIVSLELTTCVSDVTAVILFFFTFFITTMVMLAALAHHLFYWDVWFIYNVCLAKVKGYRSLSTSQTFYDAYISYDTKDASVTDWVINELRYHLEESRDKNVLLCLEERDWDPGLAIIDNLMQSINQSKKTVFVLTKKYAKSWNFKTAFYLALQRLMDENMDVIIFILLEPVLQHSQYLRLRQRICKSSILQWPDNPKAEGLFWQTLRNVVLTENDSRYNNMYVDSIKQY
Test: HEK293-Blue-hTLR-8 cells assay (SEAP reporter, R848 stimulation)
Assay type: cell-based
Conditions: HEK293-Blue-hTLR8 cells, R848, 20 hrs; 0.003 is the lowest tested concentration; read-out: HEK/hTLR8 IC50
Method: The following tests were carried out in order to determine the activity of the compounds of formula (I) or (Ia) in HEK293-Blue-hTLR-7/8/9 cells assay.
HEK293-Blue-hTLR-8 cells assay:
A stable HEK293-Blue-hTLR-8 cell line was purchased from InvivoGen (Cat.#: hkb-htlr8, San Diego, California, USA). These cells were originally designed for studying the stimulation of human TLR8 by monitoring the activation of NF-κB. A SEAP (secreted embryonic alkaline phosphatase) reporter gene was placed under the control of the IFN-β minimal promoter fused to five NF-κB and AP-1-binding sites. The SEAP was induced by activating NF-κB and AP-1 via stimulating HEK-Blue hTLR8 cells with TLR8 ligands. Therefore the reporter expression was declined by TLR8 antagonist under the stimulation of a ligand, such as R848, for incubation of 20 hrs. The cell culture supernatant SEAP reporter activity was determined using QUANTI-Blue™ kit (Cat.#: rep-qb1, Invivogen, San Diego, Ca, USA) at a wavelength of 640 nm, a detection medium that turns purple or blue in the presence of alkaline phosphatase.
HEK293-Blue-hTLR8 cells were incubated at a density of 250,000∼450,000 cells/mL in a volume of 170 µL in a 96-well plate in Dulbecco's Modified Eagle's medium (DMEM) containing 4.5 g/L glucose, 50 U/mL penicillin, […], […], 2 mM L-glutamine, 10% (v/v) heat-inactivated fetal bovine serum with addition of 20 µL test compound in a serial dilution in the presence of final DMSO at 1% and 10 µL of 60uM R848 in above DMEM, perform incubation under 37 °C in a CO2 incubator for 20 hrs. Then 20 µL of the supernatant from each well was incubated with 180 µL Quanti-blue substrate solution at 37°C for 2 hrs and the absorbance was read at 620∼655 nm using a spectrophotometer. The signalling pathway that TLR8 activation leads to downstream NF-κB activation has been widely accepted, and therefore similar reporter assay was modified for evaluating TLR8 antagonist.

Q: Which IC50 does the source give for `C[C@@H]1CN(c2ccc3c(c2)CN(C[C@H]2CN(c4ccc(C#N)c5ncccc45)C[C@@H](C)O2)C3)C[C@H](C)N1` [Example 71, 5-[(2R,6S)-2-methyl-6-[[5-[(3R,5S)-3,5-dimethylpiperazin-1-yl]isoindolin-2-yl]methyl]morpholin-4-yl]quinoline-8-carbonitrile] here?
A: 6 nM

Q: Which IC50 does the source give for `C[C@@H]1CN(c2ccc(C#N)c3ncsc23)C[C@H](CN2CCc3cc(N4CCNCC4)ccc3C2)O1` [Example 24, 7-[(2R,6S)-2-methyl-6-[(6-piperazin-1-yl-3,4-dihydro-1H-isoquinolin-2-yl)methyl]morpholin-4-yl]-1,3-benzothiazole-4-carbonitrile] here?
A: 4 nM

Q: How did the IC50 turn out when `C[C@@H]1CN(c2ccc(C#N)n3nccc23)C[C@H](CN2Cc3ccc(N4CCN(C)CC4)cc3C2)O1` [Example 17, 4-[(2R,6S)-2-methyl-6-[[5-(4-methylpiperazin-1-yl)isoindolin-2-yl]methyl]morpholin-4-yl]pyrazolo[1,5-a]pyridine-7-carbonitrile] was run?
A: 52 nM

Q: For `C[C@@H]1CN(c2ccc(Cl)c3nccnc23)C[C@H](CN2CCc3cc(N4CCNCC4)ccc3C2)O1` [Example 34, (2R,6S)-4-(8-chloroquinoxalin-5-yl)-2-methyl-6-[(6-piperazin-1-yl-3,4-dihydro-1H-isoquinolin-2-yl)methyl]morpholine], which IC50 is on record?
A: 5 nM

Q: Which IC50 does the source give for `C[C@@H]1CN(c2ccc3c(c2)CN(C[C@H]2CN(c4ccc(C#N)c5nccnc45)C[C@@H](C)O2)C3)CCN1` [Example 65, 8-[(2R,6S)-2-methyl-6-[[5-[(3R)-3-methylpiperazin-1-yl]isoindolin-2-yl]methyl]morpholin-4-yl] quinoxaline-5-carbonitrile] here?
A: < 3 nM

Q: For `C[C@@H]1CN(c2ccc(C#N)c3ncccc23)C[C@H](CN2Cc3cnc(N4CCNCC4)cc3C2)O1` [Example 61, 5-[(2R,6S)-2-methyl-6-[(6-piperazin-1-yl-1,3-dihydropyrrolo[3,4-c]pyridin-2-yl)methyl]morpholin-4-yl]quinoline-8-carbonitrile], which IC50 is on record?
A: < 3 nM

Q: For `C[C@@H]1CN(c2ccc(C#N)n3ncc(F)c23)C[C@H](CN2Cc3cc(N4CCNCC4)cnc3C2)O1` [Example 29, 3-fluoro-4-[(2R,6S)-2-methyl-6-[(3-piperazin-1-yl-5,7-dihydropyrrolo[3,4-b]pyridin-6-yl)methyl]morpholin-4-yl]pyrazolo[1,5-a]pyridine-7-carbonitrile], which IC50 is on record?
A: 14 nM

Q: With `C[C@@H]1CN(c2ccc(C#N)c3ncccc23)C[C@H](CN2Cc3ccc(N4CCNCC4CO)cc3C2)O1` (stereo partly drawn) [Example 73, 5-[(2S,6R)-2-[[5-[2-(hydroxymethyl)piperazin-1-yl]isoindolin-2-yl]methyl]-6-methyl-morpholin-4-yl]quinoline-8-carbonitrile] as the molecule, how does the IC50 read?
A: 10 nM

Q: Which IC50 does the source give for `C[C@@H]1CN(c2ccc(C#N)c3ncccc23)C[C@H](CN2CCc3nc(N4CCNCC4)ccc3C2)O1` [Example 79, 5-[(2R,6S)-2-methyl-6-[(2-piperazin-1-yl-7,8-dihydro-5H-1,6-naphthyridin-6-yl)methyl]morpholin-4-yl]quinoline-8-carbonitrile] here?
A: 4 nM

Q: For `C[C@@H]1CN(c2ccc(C#N)c3nccnc23)C[C@H](CN2Cc3ccc(N4CCNC5(CC5)C4)cc3C2)O1` [Example 38, 8-[(2S,6R)-2-[[5-(4,7-diazaspiro[2.5]octan-7-yl)isoindolin-2-yl]methyl]-6-methyl-morpholin-4-yl]quinoxaline-5-carbonitrile], which IC50 is on record?
A: 5 nM

Q: For `C[C@@H]1CN(c2ccc(C#N)n3nccc23)C[C@H](CN2Cc3cc(N4CCNCC4)cnc3C2)O1` [Example 18, 4-[(2R,6S)-2-methyl-6-[(3-piperazin-1-yl-5,7-dihydropyrrolo[3,4-b]pyridin-6-yl)methyl]morpholin-4-yl]pyrazolo[1,5-a]pyridine-7-carbonitrile], which IC50 is on record?
A: 31 nM

Q: With `C[C@@H]1CN(c2ccc(C#N)c3nccnc23)C[C@H](CN2Cc3cc(N4CCNCC4)cnc3C2)O1` [Example 30, 8-[(2R,6S)-2-methyl-6-[(3-piperazin-1-yl-5,7-dihydropyrrolo[3,4-b]pyridin-6-yl)methyl]morpholin-4-yl]quinoxaline-5-carbonitrile] as the molecule, how does the IC50 read?
A: 3 nM

Q: Which IC50 does the source give for `C[C@@H]1CN(c2ccc(C#N)c3ncccc23)C[C@H](CN2Cc3ccccc3C2)O1` [Example R3, 5-[(2S,6R)-2-(isoindolin-2-ylmethyl)-6-methyl-morpholin-4-yl]quinoline-8-carbonitrile, reference compound] here?
A: 146 nM

Q: Which IC50 does the source give for “3-fluoro-4-[(2R,6S)-2-methyl-6-[(5-piperazin-1-ylisoindolin-2-yl)methyl]morpholin-4-yl]pyrazolo[1,5-a]pyridine-7-carbonitrile [Example 7]” here?
A: 13 nM

Q: How did the IC50 turn out when `CC1c2ccc(N3CCNCC3)cc2CN1C[C@H]1CN(c2ccc(C#N)c3ncccc23)C[C@@H](C)O1` (stereo partly drawn) [Example 48, 5-[(2R,6S)-2-methyl-6-[(1-methyl-5-piperazin-1-yl-isoindolin-2-yl)methyl]morpholin-4-yl]quinoline-8-carbonitrile] was run?
A: 18 nM

Q: With `C[C@@H]1CN(c2ccc(C#N)c3ncccc23)C[C@H](CN2Cc3ccc(N4CC5(CNC5)C4)cc3C2)O1` [Example 47, 5-[(2S,6R)-2-[[5-(2,6-diazaspiro[3.3]heptan-2-yl)isoindolin-2-yl]methyl]-6-methyl-morpholin-4-yl]quinoline-8-carbonitrile] as the molecule, how does the IC50 read?
A: 23 nM

Q: For `C[C@@H]1CN(c2ccc(Cl)c3ncccc23)C[C@H](CN2Cc3ccc(N4CCNCC4)cc3C2)O1` [Example 31, (2R,6S)-4-(8-chloro-5-quinolyl)-2-methyl-6-[(5-piperazin-1-ylisoindolin-2-yl)methyl]morpholine], which IC50 is on record?
A: 13 nM

Q: How did the IC50 turn out when `C[C@@H]1CN(c2ccc3c(c2)CN(C[C@H]2CN(c4ccc(C#N)c5ncccc45)C[C@@H](C)O2)C3)C[C@@H](C)N1` (mixture of isomers) [Example 57, Trans-5-[(2R,6S)-2-methyl-6-[[5-[3,5-dimethylpiperazin-1-yl]isoindolin-2-yl]methyl]morpholin-4-yl]quinoline-8-carbonitrile] was run?
A: 12 nM

Q: `C[C@@H]1CN(c2ccc(C#N)n3nccc23)C[C@H](CN2Cc3ccc(OCCN(C)C)cc3C2)O1` [Example 28, 4-[(2S,6R)-2-[[5-[2-(dimethylamino)ethoxy]isoindolin-2-yl]methyl]-6-methyl-morpholin-4-yl]pyrazolo[1,5-a]pyridine-7-carbonitrile] was tested. Which IC50 did it give?
A: 58 nM

Q: With `C[C@@H]1CN(c2ccc(C#N)c3nccnc23)C[C@H](CN2Cc3ccc(N4CCN[C@@H](C)C4)cc3C2)O1` [Example 66, 8-[(2R,6S)-2-methyl-6-[[5-[(3S)-3-methylpiperazin-1-yl]isoindolin-2-yl]methyl]morpholin-4-yl]quinoxaline-5-carbonitrile] as the molecule, how does the IC50 read?
A: < 3 nM

Q: `COCCN1CCN(c2ccc3c(c2)CN(C[C@H]2CN(c4ccc(C#N)c5nccnc45)C[C@@H](C)O2)C3)CC1` [Example 37, 8-[(2S,6R)-2-[[5-[4-(2-methoxyethyl)piperazin-1-yl]isoindolin-2-yl]methyl]-6-methyl-morpholin-4-yl]quinoxaline-5-carbonitrile] was tested. Which IC50 did it give?
A: 9 nM
